Measurements reported in patent US7034000B2, “Peptides derived from the human amyloid precursor protein” (The Brigham and Women's Hospital, Inc., priority 2000, dated 2006).
Values belong to the molecule of their own block, whether it stands above or below them.

Test: ferrozine based iron oxidation (ferroxidase) assay
Assay type: biochemical
Settings: for Vmax, rate of iron oxidation: another set of ferrozine-based assays, 0.5 μM each; for Vmax of iron oxidation: first set, 6.5 nM of protein; for ferroxidase activity when synthesized as a distinct peptide: statement in summary, no values
Method: Computer-based alignments of APP and H-ferritin were run using the Gap and Bestfit sequence alignment programs for Vax software. […] Bovine serum albumin (BSA) served as a negative control for these experiments since 6.5 μM BSA provided a 5-fold lower apparent rate of iron oxidation (an apparent reaction rate of 0.1 μM iron oxidized per minute). It was concluded that purified, secreted APP ectodomain specifically catalyzes the oxidation of 100-fold more iron per minute than the amount of APP present. This is an indication that APP harbors one or more sites for catalytic iron oxidation.
Using synthetic peptides, it was confirmed that sequences overlapping the newly identified FOX-1 domain in APP function as intrinsic ferroxidases. A peptide designated as “A2” (coding for residues 316 to 337 in APP-695)was tested. […] Ceruloplasmin (Cp) was used as a positive control since Cp is a known copper-dependent iron oxidase. […] The standard error for each of these reactions was less than 5%.
The known RERMS domain of APP (319 to 335 with respect to APP-695) is a cytoprotective region of APP and overlaps the A2 to peptide described above. […] The 827 sequence is HRBRMSQVMREWEEAERQAKNL (SEQ ID NO: 6), encoding 9 amino terminal amino acids that overlap with the RERMS peptide. In addition, 827 has 13 unique amino acids that align with the ferritin iron oxidase domain, as present in FOX-1. […] It was concluded that peptides spanning sequences from 316 to 346 of APP-695 can be used as agents to protect cells from iron catalyzed cellular damage.

Molecule: A2 peptide: synthetic peptide coding for residues 316 to 337 in APP-695, overlaps RERMS domain (CAPFFYGGCGGNRNNFDTEEYC; APP695; UniProt P05067 316-337, looked up, fragment)
rate of iron oxidation compared with BSA or RNase-A (0.5 μM): significantly higher
Vmax, rate of iron oxidation: 2.78 µM/min
iron oxidase activity Vmax (second set, 0.5 μM peptide): 2.96 μM/min/0.5 μM peptide

Molecule: APP: purified, secreted human amyloid precursor protein ectodomain
Vmax of iron oxidation: 0.5 µM/min
iron oxidized per minute relative to the amount of APP present (purified, secreted APP ectodomain): 100 fold

Molecule: HRERMSQVMREWEEAERQAKNL (listed as Homo sapiens) [827 peptide, first 13 N-terminal amino acids of FOX-1 fused to nine amino acids from the RERMS domain of APP-695 (327–348)]
Vmax, rate of iron oxidation: 7.36 µM/min

B1: RNase-A: negative control protein (protein, UniProt P61823 27-150, looked up)
Ribonuclease pancreatic: KETAAAKFERQHMDSSTSAASSSNYCNQMMKSRNLTKDRCKPVNTFVHESLADVQAVCSQKNVACKNGQTNCYQSYSTMSITDCRETGSSKYPNCAYKTTQANKHIIVACEGNPYVPVHFDASV
apparent Vmax (second set, 0.5 μM, n=6, negative control): 1.96 µM iron/min/0.5 µM peptide

B2: RNaseTI: control protein in the second set of ferrozine-based assays (protein, UniProt P00651 27-130, looked up)
Guanyl-specific ribonuclease …: ACDYTCGSNCYSSSDVSTAQAAGYQLHEDGETVGSNSYPHKYNNYEGFDFSVSSPYYEWPILSSGDVYSGGSPGADRVVFNENNQLAGVITHTGASGNNFVECT
Vmax, rate of iron oxidation: 1.05 µM/min

B3: Ceruloplasmin: known copper-dependent iron oxidase (ferroxidase), positive control (protein, UniProt P00450 20-1065, looked up)
Ceruloplasmin: KEKHYYIGIIETTWDYASDHGEKKLISVDTEHSNIYLQNGPDRIGRLYKKALYLQYTDETFRTTIEKPVWLGFLGPIIKAETGDKVYVHLKNLASRPYTFHSHGITYYKEHEGAIYPDNTTDFQRADDKVYPGEQYTYMLLATEEQSPGEGDGNCVTRIYHSHIDAPKDIASGLIGPLIICKKDSLDKEKEKHIDREFVVMFSVVDENFSWYLEDNIKTYCSEPEKVDKDNEDFQESNRMYSVNGYTFGSLPGLSMCAEDRVKWYLFGMGNEVDVHAAFFHGQALTNKNYRIDTINLFPATLFDAYMVAQNPGEWMLSCQNLNHLKAGLQAFFQVQECNKSSSKDNIRGKHVRHYYIAAEEIIWNYAPSGIDIFTKENLTAPGSDSAVFFEQGTTRIGGSYKKLVYREYTDASFTNRKERGPEEEHLGILGPVIWAEVGDTIRVTFHNKGAYPLSIEPIGVRFNKNNEGTYYSPNYNPQSRSVPPSASHVAPTETFTYEWTVPKEVGPTNADPVCLAKMYYSAVEPTKDIFTGLIGPMKICKKGSLHANGRQKDVDKEFYLFPTVFDENESLLLEDNIRMFTTAPDQVDKEDEDFQESNKMHSMNGFMYGNQPGLTMCKGDSVVWYLFSAGNEADVHGIYFSGNTYLWRGERRDTANLFPQTSLTLHMWPDTEGTFNVECLTTDHYTGGMKQKYTVNQCRRQSEDSTFYLGERTYYIAAVEVEWDYSPQREWEKELHHLQEQNVSNAFLDKGEFYIGSKYKKVVYRQYTDSTFRVPVERKAEEEHLGILGPQLHADVGDKVKIIFKNMATRPYSIHAHGVQTESSTVTPTLPGETLTYVWKIPERSGAGTEDSACIPWAYYSTVDQVKDLYSGLIGPLIVCRRPYLKVFNPRRKLEFALLFLVFDENESWYLDDNIKTYSDHPEKVNKDDEEFIESNKMHAINGRMFGNLQGLTMHVGDEVNWYLMGMGNEIDLHTVHFHGHSFQYKHRGVYSSDVFDIFPGTYQTLEMFPRTPGIWLLHCHVTDHIHAGMETTYTVLQNEDTKSG
Vmax, rate of iron oxidation: 6.41 µM/min
Vmax of iron oxidation: 5 µM/min
reaction velocity (Vmax) (second set, 0.5 μM protein, n=6, positive control): 4.2 µM iron/min/0.5 µM protein

More lines, now with the values ahead:

ferroxidase activity when synthesized as a distinct peptide: has ferroxidase activity
Molecule: DGDEVEEEAEPYEEATERTTSIA (listed as Homo sapiens) [FOX-2, peptide corresponding to the complete FOX-2 domain, between amino acids 250 and 273 in APP-695]

ferroxidase activity when synthesized as a distinct peptide: has ferroxidase activity
Molecule: REWEEAERQAKNLPKADKKAVIQH (listed as Homo sapiens) [FOX-1]
